Patent publication US4772551A (priority 1985, dated 1988)

Target: T-2 reactive monoclonal antibody
Assay type: binding, murine
Settings: not given
In the case of `CC(=O)OC[C@]12C[C@H](OC(=O)CC(C)(C)O)C(C)=C[C@H]1O[C@@H]1[C@H](O)[C@@H](O)[C@@]2(C)[C@]12CO2` [3'OH HT-2], the “50% Inhibition (concentration required to inhibit binding of antibody by 50%)” value (“50% Inhibition” for short) is reported as 0.100 µg/mL and the “Minimal Inhibition (concentration required for first significant inhibition of binding of antibody)” value is reported as 0.05 µg/mL. With `CC(=O)OC[C@]12C[C@H](OC(=O)CC(C)(C)O)C(C)=C[C@H]1O[C@@H]1[C@H](O)[C@@H](OC(C)=O)[C@@]2(C)[C@]12CO2` [3'OH T-2] the “50% Inhibition” value was 0.018 µg/mL and the “Minimal Inhibition (concentration required for first significant inhibition of binding of antibody)” value was 0.005 µg/mL. In the case of `CC(=O)OC[C@]12C[C@H](OC(=O)CC(C)C)C(C)=C[C@H]1O[C@@H]1[C@H](OC(C)=O)[C@@H](OC(C)=O)[C@@]2(C)[C@]12CO2` [Acetyl T-2], the “50% Inhibition” value is reported as 0.094 µg/mL, the “Minimal Inhibition (concentration required for first significant inhibition of binding of antibody)” value is reported as 0.01 µg/mL and the “cross reaction with T-2 monoclonal antibody” value is reported as “strong cross reaction”. With `CC1=C[C@H]2O[C@@H]3[C@H](O)C[C@](C)([C@@]2(CO)[C@H](O)C1=O)[C@]31CO1` [Deoxynivalanol] the “50% Inhibition” value was over 1000. ug/ml and the “Minimal Inhibition (concentration required for first significant inhibition of binding of antibody)” value was over 1000. ug/ml. In the case of `CC(=O)OC[C@]12C[C@H](OC(=O)CC(C)C)C(C)=C[C@H]1O[C@@H]1[C@H](O)[C@@H](O)[C@@]2(C)[C@]12CO2` [HT-2], the “50% Inhibition” value is reported as 1.0 µg/mL, the “Minimal Inhibition (concentration required for first significant inhibition of binding of antibody)” value is reported as 0.5 µg/mL and the “cross reaction with T-2 monoclonal antibody” value is reported as “relatively weak cross-reaction”. The “reactivity relative to T-2” value was 2%. In the case of `CC(=O)OC[C@]12C[C@H](O)C(C)=C[C@H]1O[C@@H]1[C@H](O)[C@@H](OC(C)=O)[C@@]2(C)[C@]12CO2` [Neosolaniol], the “50% Inhibition” value is reported as 1.6 µg/mL and the “Minimal Inhibition (concentration required for first significant inhibition of binding of antibody)” value is reported as 1.0 µg/mL. With `CC1=C[C@H]2O[C@@H]3[C@H](O)[C@@H](O)[C@](C)([C@@]2(CO)C[C@@H]1OC(=O)CC(C)C)[C@]31CO1` [T-2 triol] the “50% Inhibition” value was 14.9 µg/mL and the “Minimal Inhibition (concentration required for first significant inhibition of binding of antibody)” value was 5.0 µg/mL. With `CC(=O)OC[C@]12C[C@H](OC(=O)CC(C)C)C(C)=C[C@H]1O[C@@H]1[C@H](OC(=O)CCC(=O)O)[C@@H](OC(C)=O)[C@@]2(C)[C@]12CO2` [T-2HS, T-2-hemisuccinate] the “50% Inhibition” value was 0.072 µg/mL and the “Minimal Inhibition (concentration required for first significant inhibition of binding of antibody)” value was 0.01 µg/mL.

System: polyclonal antibodies produced to aflatoxin B1 and ochratoxin A
Settings: cited from earlier work
In the case of `C[C@@H]1Cc2c(Cl)cc(C(=O)N[C@@H](Cc3ccccc3)C(=O)O)c(O)c2C(=O)O1` [ochratoxin A], the sensitivity is listed as 5-10 ppb.
